We go through 9 compounds from ChEMBL document CHEMBL1201862, “PubChem BioAssay data set” (2004).

Calls of active or inactive are those of the source. A value given as a limit tells only on which side of the number the result lay.

Assay [1] concerns BJ. Description: cytotoxicity toward BJ-TERT-LT-ST fibroblasts, dose response, cell-based, RAS-independent, luminescence (AID 1935).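 Note: BJ fibroblasts immortalized with TERT plus LT and ST oncogenes.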 To be noted: Homo sapiens. Type of assay: functional.
Assay [2] is described as follows: cytotoxicity in HEK-293T cells, dose response, cytotoxicity control for TCR NF-kB inhibitor project, luminescence, T-cell screen hits (AID 489026).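 Note: cells exposed to compound about 14 hours before the viability readout.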 Type of assay: functional, cell-based.
Assay [3] has as its system BJ. Kind of assay: cytotoxicity toward BJ-TERT fibroblasts, dose response, cell-based, RAS-independent, luminescence (AID 1933). Type of assay: functional. To be noted: Homo sapiens.
The subject of assay [4] is BJ. Description: cells. To be noted: Homo sapiens. Format: functional, cell-based.
Assay [5] can be described thus: cytotoxicity toward DRD oncogenic fibroblasts, dose response, cell-based, non-viral oncogenic, luminescence (AID 1934). Type of assay: functional. The following applies: Homo sapiens.
Assay [6] addresses Eukaryotic translation initiation factor 4H (Homo sapiens, UniProt Q15056). Description: human eIF4H binding inhibitors, primary screen, translation initiation inhibitor project, biochemical, uHTS, fluorescence polarization (AID 2012).
The next assay concerns the target Estrogen receptor (Homo sapiens, UniProt P03372).
In another assay the target is Estrogen receptor beta (Homo sapiens, UniProt Q92731).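 Note: recombinant ER-beta bound to coactivator SRC1 peptide in presence of estradiol agonist; inhibitors block coactivator peptide binding and lower the FRET signal.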
Chain of Estrogen receptor beta (Q92731 whole entry): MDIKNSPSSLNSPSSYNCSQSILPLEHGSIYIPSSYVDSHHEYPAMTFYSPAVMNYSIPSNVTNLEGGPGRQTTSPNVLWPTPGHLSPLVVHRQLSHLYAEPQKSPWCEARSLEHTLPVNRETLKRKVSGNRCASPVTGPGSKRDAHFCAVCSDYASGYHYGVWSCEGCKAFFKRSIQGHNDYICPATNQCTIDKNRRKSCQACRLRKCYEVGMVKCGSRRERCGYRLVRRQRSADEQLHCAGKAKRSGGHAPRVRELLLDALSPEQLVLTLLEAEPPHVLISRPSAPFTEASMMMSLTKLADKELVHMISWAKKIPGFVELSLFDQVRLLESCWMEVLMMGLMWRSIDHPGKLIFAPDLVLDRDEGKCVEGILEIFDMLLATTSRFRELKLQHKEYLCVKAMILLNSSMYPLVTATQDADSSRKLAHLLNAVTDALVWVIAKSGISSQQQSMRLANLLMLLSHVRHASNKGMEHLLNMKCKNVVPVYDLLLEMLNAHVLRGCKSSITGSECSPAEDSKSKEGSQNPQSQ
In assay [7] the target is Polyadenylate-binding protein 1 (Homo sapiens, UniProt P11940). Description: PABP poly(A) RNA binding inhibitors, primary screen, biochemical, fluorescence polarization, uHTS (AID 2014). A general note: In fluorescence polarisation assays a small probe gives low polarisation when free and higher when bound to something large.
Assay [8] deals with Mitogen-activated protein kinase 10 (Homo sapiens, UniProt P53779). Description: Dose response biochemical screening assay for inhibitors of c-Jun N-Terminal Kinase 3 (JNK3). [Related pubchem assays: 746 ].
For a further assay, the target named is Wee1-like protein kinase (Homo sapiens, UniProt P30291). Kind of assay: Dose Response Cell-based Assay for Inhibitors of Wee1 Degradation. [Related pubchem assays: 1410, 1321 ]. Type of assay: functional.
Chain of Wee1-like protein kinase (P30291 whole entry): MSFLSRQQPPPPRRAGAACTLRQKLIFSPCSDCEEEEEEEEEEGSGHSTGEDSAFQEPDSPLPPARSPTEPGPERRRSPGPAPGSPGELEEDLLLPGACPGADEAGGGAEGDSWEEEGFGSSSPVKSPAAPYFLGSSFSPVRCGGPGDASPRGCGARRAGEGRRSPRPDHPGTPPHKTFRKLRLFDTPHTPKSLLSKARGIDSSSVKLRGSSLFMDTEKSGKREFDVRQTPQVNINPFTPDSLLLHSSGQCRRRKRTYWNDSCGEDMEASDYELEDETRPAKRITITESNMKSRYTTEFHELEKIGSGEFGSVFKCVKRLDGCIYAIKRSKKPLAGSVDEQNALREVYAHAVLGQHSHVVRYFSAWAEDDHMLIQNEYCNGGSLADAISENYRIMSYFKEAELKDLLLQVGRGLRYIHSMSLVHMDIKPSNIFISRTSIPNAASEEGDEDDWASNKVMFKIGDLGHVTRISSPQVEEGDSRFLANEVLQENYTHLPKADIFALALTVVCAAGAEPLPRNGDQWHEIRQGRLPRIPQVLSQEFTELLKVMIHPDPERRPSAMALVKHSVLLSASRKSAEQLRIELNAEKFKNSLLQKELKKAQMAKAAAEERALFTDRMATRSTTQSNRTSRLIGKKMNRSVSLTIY
For assay [9], the target named is G2/mitotic-specific cyclin-B1 (Homo sapiens, UniProt P14635). Description: Counterscreen assay for inhibitors of Wee1 degradation: dose response cell-based assay to identify inhibitors of cyclin B degradation. [Related pubchem assays: 1410, 1321 ]. Format: functional. A general note: The purpose of a counterscreen is to sort out artefacts and off-target activity.

The next assay has as its system Jurkat. Description: antigen receptor-induced NF-kB inhibitors, dose response, Jurkat, luciferase reporter, luminescence, B- and T-cell (AID 489004).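 Note: NF-kB luciferase reporter Jurkat cells stimulated with PMA plus ionomycin.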 Type of assay: functional, cell-based. To be noted: Homo sapiens.
The nature of assay [10]: cytotoxicity in HEK-293T NF-kB-Luc cells, dose response, cytotoxicity control for B/T-cell NF-kB inhibitor project, cell-based, uHTS hits (AID 489019).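 Note: IC50 reflects cytotoxicity as loss of cell viability.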 Format: functional.
The target in the next assay is Procathepsin L (Homo sapiens, UniProt P07711).
Another assay deals with Large T antigen (Simian virus 40, UniProt P03070). Type of assay: functional, Betapolyomavirus macacae.
The next assay deals with Aspartyl aminopeptidase (Plasmodium falciparum 3D7, UniProt Q8I2J3).
Chain of Aspartyl aminopeptidase (Q8I2J3 whole entry): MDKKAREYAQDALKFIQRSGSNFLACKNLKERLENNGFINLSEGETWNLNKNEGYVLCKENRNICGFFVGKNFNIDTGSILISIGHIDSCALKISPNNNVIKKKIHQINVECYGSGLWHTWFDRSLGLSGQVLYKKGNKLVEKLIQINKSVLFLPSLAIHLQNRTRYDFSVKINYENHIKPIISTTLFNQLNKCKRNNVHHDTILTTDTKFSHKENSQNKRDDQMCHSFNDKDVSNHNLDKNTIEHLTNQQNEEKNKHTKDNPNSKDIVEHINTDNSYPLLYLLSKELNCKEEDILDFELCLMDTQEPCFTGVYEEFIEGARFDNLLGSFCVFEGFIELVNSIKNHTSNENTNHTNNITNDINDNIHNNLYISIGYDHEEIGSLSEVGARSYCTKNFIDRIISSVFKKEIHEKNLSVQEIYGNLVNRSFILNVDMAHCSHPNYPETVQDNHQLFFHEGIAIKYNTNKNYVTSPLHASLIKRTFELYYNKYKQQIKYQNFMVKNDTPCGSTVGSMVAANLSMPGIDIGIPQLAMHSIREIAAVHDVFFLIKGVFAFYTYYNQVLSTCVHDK
For another assay, the target named is Cytochrome P450 2C9 (Homo sapiens, UniProt P11712).
Another assay has as its system HeLa. Kind of assay: HeLa cell cytotoxicity, dose response, cytotoxicity control, 24 h, cherry-picked samples (AID 504726).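 Note: potency for cytotoxicity as loss of luminescence signal.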 Type of assay: functional, cell-based. To be noted: Homo sapiens.
A further assay concerns the target Cytochrome P450 2C19 (Homo sapiens, UniProt P33261). Description: Cytochrome panel assay with activity outcomes. Panel member name: p450-cyp2c19 Compounds with AC50 equal or less than 10 uM are considered active. Type of assay: functional. To be noted: read-out: AC50.
The target in assay [11] is DNA (cytosine-5)-methyltransferase 1 (Homo sapiens, UniProt P26358). Kind of assay: DNMT1 methyltransferase inhibitors, confirmation, biochemical, fluorescent molecular beacon (AID 602386). Format: functional.
Assay [12] in a line: THP-1 cell cytotoxicity, dose response, cytotoxicity control for Vif-APOBEC3G degradation inhibitor project, THP-1 cells (AID 1117359). Type of assay: functional. To be noted: Human immunodeficiency virus 1, THP-1.
Assay [13] is described as follows: Luminescence Cell-Based Dose Retest to Confirm Inhibitors of Cancer Stem Cells. [Related pubchem assays (depositor defined):AID2717, AID2721]. Format: functional. To be noted: Homo sapiens.
The target in assay [14] is T1, Ubiquitin-conjugating enzyme E2 N (Homo sapiens, UniProt P61088).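 Note: Dose-response confirmation in a TR-FRET assay detecting UBC13-driven polyubiquitin chain formation, inhibition measured.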
T1 sequence (P61088 whole entry): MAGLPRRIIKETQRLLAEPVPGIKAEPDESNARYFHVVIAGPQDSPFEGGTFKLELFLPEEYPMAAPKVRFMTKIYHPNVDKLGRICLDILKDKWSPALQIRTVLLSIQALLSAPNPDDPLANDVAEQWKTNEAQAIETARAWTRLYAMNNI
Type of assay: functional.

Assay [15] concerns the target Cyclin-dependent kinase 5/CDK5 activator 1 (Homo sapiens, UniProt Q00535). Kind of assay: CDK5/p35 kinase inhibitors, dose response, biochemical, cherry-picked samples, set 2 (AID 504545).
Assay [16] has as its target T2, Mucolipin-3 (Homo sapiens, UniProt Q8TDD5).
T2 sequence (Q8TDD5 whole entry): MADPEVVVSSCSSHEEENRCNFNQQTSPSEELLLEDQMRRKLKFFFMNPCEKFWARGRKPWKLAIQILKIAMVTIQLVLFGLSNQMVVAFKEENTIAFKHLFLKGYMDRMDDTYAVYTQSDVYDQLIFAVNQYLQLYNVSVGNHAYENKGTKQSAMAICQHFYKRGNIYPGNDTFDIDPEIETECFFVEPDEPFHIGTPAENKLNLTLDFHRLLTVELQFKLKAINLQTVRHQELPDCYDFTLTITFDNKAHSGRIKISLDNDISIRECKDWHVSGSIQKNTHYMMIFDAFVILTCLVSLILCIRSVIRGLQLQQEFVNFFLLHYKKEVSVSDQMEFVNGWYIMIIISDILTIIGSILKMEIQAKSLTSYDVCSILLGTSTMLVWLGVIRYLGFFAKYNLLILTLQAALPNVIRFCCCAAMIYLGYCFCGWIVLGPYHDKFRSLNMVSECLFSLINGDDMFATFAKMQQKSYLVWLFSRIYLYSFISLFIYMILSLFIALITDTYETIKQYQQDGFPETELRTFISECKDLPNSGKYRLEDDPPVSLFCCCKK
Description: Dose response cell-based high-throughput screening assay for agonists of the transient receptor potential channel ML3 (TRPML3). [Related pubchem assays: 1526, 1424, 1448 ]. Format: functional.

In assay [17] the target is T3, Ion channel NompC (Danio rerio, UniProt Q7T1G6). Description: Fluorescence counterscreen assay for TRPML3 agonists: dose response cell-based high-throughput screening assay to identify agonists of the transient receptor potential channel N1 (TRPN1). [Related pubchem assays: 1526, 1424, 1448 ]. Type of assay: functional.
T3 sequence (Q7T1G6 whole entry): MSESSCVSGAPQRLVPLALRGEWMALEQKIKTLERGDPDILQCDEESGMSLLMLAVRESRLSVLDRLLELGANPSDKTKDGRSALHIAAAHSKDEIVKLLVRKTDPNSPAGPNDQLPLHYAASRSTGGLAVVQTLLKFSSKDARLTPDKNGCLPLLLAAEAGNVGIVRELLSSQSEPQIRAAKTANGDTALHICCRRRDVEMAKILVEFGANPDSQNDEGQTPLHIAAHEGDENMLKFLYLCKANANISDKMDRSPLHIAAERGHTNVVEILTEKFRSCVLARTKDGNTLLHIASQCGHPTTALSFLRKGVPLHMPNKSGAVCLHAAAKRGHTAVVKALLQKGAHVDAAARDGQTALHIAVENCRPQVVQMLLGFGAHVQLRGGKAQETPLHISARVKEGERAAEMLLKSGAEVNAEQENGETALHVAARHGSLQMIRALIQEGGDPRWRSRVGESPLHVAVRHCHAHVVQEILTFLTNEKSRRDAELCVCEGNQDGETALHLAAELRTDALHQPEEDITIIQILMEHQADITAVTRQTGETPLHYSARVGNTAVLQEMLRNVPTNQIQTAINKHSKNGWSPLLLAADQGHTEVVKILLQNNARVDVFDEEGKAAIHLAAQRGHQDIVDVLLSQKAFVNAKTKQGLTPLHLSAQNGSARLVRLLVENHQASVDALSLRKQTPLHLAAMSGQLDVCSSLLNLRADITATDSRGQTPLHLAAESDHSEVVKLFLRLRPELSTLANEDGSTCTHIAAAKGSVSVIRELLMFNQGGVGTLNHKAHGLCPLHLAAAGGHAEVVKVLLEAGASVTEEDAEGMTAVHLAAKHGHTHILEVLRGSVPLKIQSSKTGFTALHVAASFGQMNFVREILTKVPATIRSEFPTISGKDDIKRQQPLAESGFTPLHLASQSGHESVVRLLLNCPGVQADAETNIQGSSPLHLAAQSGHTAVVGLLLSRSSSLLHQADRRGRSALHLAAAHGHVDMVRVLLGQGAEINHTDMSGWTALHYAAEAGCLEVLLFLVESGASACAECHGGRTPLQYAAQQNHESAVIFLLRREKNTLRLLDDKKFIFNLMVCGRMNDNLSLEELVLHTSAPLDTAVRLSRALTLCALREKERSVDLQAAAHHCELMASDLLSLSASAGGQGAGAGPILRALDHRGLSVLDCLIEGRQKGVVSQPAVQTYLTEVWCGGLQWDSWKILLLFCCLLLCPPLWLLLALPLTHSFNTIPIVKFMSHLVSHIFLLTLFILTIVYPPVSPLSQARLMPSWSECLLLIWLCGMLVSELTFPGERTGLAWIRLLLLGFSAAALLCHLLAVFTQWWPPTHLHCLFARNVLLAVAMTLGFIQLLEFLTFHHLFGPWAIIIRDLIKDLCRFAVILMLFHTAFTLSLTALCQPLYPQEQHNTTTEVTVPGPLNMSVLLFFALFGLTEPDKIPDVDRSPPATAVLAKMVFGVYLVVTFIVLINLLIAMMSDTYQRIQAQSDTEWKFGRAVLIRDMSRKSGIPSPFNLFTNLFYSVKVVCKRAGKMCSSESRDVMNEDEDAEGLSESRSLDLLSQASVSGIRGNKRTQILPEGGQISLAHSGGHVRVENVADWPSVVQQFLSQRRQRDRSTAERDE
Assay [18] addresses T3, Ion channel NompC. Description: TRPML3 and TRPML2 channel agonists, cell-based, patch clamp, Fura-2 profiling panel, panel member TRPN1 Dose Response (AID 2116). A general note: Patch clamp records ionic current or voltage across a cell membrane.
In assay [19] the target is T2, Mucolipin-3. Description: TRPML3 and TRPML2 channel agonists, cell-based, patch clamp, Fura-2 profiling panel, panel member TRPML3 Dose Response (AID 2116).
The target in assay [20] is T4, Kappa-type opioid receptor (Homo sapiens, UniProt P41145). Kind of assay: KOR agonist analogs, imaging readout, SAR follow-up, image-based (AID 2359). Format: functional.
T4 sequence (P41145 whole entry): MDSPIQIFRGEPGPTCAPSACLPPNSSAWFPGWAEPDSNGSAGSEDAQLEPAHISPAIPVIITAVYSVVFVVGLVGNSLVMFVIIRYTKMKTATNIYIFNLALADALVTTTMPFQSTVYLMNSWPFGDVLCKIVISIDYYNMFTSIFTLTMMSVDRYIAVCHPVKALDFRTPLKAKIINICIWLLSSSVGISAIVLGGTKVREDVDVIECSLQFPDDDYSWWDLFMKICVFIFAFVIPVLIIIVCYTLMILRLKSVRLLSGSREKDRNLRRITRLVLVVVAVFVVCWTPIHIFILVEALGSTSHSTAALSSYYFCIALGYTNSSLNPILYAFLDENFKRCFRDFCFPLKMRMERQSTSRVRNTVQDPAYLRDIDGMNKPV
Assay [21] has as its target T5, Mu-type opioid receptor (Homo sapiens, UniProt P35372). Kind of assay: HTS Image-Based Screen for Agonists of the MOR Receptor. [Related pubchem assays (depositor defined):AID1777, AID1785, AID1786, AID2133]. Type of assay: functional.
For assay [22], the target named is T6, Delta-type opioid receptor (Homo sapiens, UniProt P41143). Kind of assay: DOR antagonists, SAR follow-up, image-based (AID 2357). Format: functional.
T6 sequence (P41143 whole entry): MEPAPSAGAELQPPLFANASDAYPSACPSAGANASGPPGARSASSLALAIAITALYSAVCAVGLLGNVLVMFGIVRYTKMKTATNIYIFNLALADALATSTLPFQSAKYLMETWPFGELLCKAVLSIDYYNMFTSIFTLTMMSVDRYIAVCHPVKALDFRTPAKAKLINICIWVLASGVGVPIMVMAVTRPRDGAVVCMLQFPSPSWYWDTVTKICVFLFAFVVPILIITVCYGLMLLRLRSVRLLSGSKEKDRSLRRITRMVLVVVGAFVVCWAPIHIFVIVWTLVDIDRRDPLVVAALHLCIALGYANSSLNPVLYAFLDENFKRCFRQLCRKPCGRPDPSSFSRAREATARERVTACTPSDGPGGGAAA
The target of assay [23] is T5, Mu-type opioid receptor. Description: MOR agonists by imaging, SAR follow-up, image-based (AID 2352). Type of assay: functional.
Assay [24] addresses T5, Mu-type opioid receptor. Description: MOR antagonists, SAR follow-up, image-based (AID 2420).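 Note: compounds added before stimulation of receptor with agonist DAMGO.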 Format: functional.
For assay [25], the target named is T6, Delta-type opioid receptor. Kind of assay: DOR agonists, SAR follow-up, image-based (AID 2370). Type of assay: functional.
Assay [26] deals with T6, Delta-type opioid receptor. Description: HTS Image-Based Screen for Agonists of the DOR Receptor. [Related pubchem assays (depositor defined):AID1777, AID1786, AID2133]. Format: functional.
The target of assay [27] is T4, Kappa-type opioid receptor. Description: KOR antagonists by imaging, SAR follow-up, image-based (AID 2348). Format: functional.
Assay [28] concerns the target T4, Kappa-type opioid receptor. Description: SAR analysis of small molecule agonists of the kappa opioid receptor via a luminescent beta-arrestin assay. [Related pubchem assays (depositor defined):AID1777, AID1786, AID1966, AID2133, AID2136, AID2348, AID2352, AID2357, AID2359, AID2370, AID2420, AID2478, AID2491, AID2492, AID2493, AID2497, AID2498, AID2500, AID449737, AID488822, AID488842]. Type of assay: functional.

Assay [29] addresses T4, Kappa-type opioid receptor. Type of assay: functional.
The target in assay [30] is T4, Kappa-type opioid receptor. Format: functional. This is another data set of the same source.
In assay [31] the target is T6, Delta-type opioid receptor. Kind of assay: HTS Image-Based Screen for Antagonists of the DOR Receptor. [Related pubchem assays (depositor defined):AID1777, AID1785, AID1786, AID2133]. Type of assay: functional.
Assay [32] concerns the target Acyl-homoserine lactone acylase PvdQ (Pseudomonas aeruginosa (strain LESB58), UniProt Q9I194). Kind of assay: P. aeruginosa PvdQ acylase inhibitors, dose response, biochemical, fluorescence, plate reader and imaging, cherry-picks (AID 493231).
Assay [33] addresses Dual specificity protein phosphatase 3 (Homo sapiens, UniProt P51452). Description: VHR1 inhibitor Ki determination, SAR follow-up, biochemical, colorimetric (AID 2004).

T5 sequence (P35372 whole entry): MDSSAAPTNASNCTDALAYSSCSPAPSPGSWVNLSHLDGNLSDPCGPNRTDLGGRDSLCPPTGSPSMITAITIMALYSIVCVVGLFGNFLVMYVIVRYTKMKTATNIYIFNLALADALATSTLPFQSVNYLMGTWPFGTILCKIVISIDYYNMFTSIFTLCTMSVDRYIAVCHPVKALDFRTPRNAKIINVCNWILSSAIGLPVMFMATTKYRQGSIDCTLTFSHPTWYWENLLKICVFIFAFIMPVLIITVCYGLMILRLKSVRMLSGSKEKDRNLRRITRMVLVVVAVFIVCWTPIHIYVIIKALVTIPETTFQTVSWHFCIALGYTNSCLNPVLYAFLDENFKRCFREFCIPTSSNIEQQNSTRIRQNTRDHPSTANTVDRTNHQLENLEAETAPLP
Chain of Dual specificity protein phosphatase 3 (P51452 whole entry): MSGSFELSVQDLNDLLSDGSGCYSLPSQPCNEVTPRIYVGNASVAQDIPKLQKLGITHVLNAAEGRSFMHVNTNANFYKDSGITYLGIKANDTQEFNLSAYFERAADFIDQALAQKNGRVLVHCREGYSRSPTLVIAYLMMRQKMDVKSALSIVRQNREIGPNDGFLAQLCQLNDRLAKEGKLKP

The term EC50 denotes the concentration needed to bring the measured effect to its halfway point. What is called IC50 is the point on the concentration scale where inhibition reaches its midpoint. With `C/C=C/COC(=O)c1[nH]c2c(c1C)C(=O)CC(c1ccco1)C2` (stereo not drawn), the EC50 was 4.74 µM (inconclusive) in the assay on BJ [1], 2.84 µM (inconclusive) in the assay on BJ [3], 2.76 µM (active) in the assay with BJ [4] and 2.76 µM (active) in assay [5]. The IC50 was > 80 µM (inactive) in assay [2]; 21.7 µM (active) in [6]; 24.7 µM (active) on Estrogen receptor; > 50 µM (not active) against Estrogen receptor beta; 45.8 µM (active) in assay [7].

In the case of `Cc1ccnc(NC(=O)CCCOc2cc(=O)n(C)c3ccccc23)c1`, the IC50 in assay [8] was 62.4 µM (not active); in the assay on Jurkat, 6.22 µM (active); in assay [10], > 80 µM (inactive). Moreover, the figures for the EC50 (at Wee1-like protein kinase; in assay [9]) were 7.87 µM (active) and > 49.7 µM (not active), respectively.

Turning to `N/C(=N\N=C\c1ccc(O)cc1O)N[N+](=O)[O-]`, the IC50 at Procathepsin L is > 59.6 µM (not active); on Large T antigen, 8.78 µM (active); on Aspartyl aminopeptidase, 4.61 µM (active).

The AC50 is the concentration at which the activity in the assay is half-maximal. The term CC50 denotes the concentration giving 50% cytotoxicity. Consider `COC(=O)\C(C(C)=O)=C(/C=C/C=C/C=C/N(C)C)N(C)C`, for which the AC50 on Cytochrome P450 2C9 is 15.8 µM (inconclusive); in the assay with HeLa, 274 µM (active); on Cytochrome P450 2C19, 14.1 µM (inconclusive). In assay [11], the IC50 was 8.38 µM (active). The CC50 in assay [12] is > 40 µM (active).

Regarding `CC[C@H](CO)Nc1nc(Nc2cccc(Cl)c2)c2ncn(C(C)C)c2n1`, the AC50 in [13] was 6.4 µM (active); in [15] it was 0.275 µM (active). The IC50 in assay [14] is > 20 µM (inactive).

`Cc1ccc(N2CCN(S(=O)(=O)N3CCCCC3)CC2)c(C)c1`: the EC50 is 1.43 µM (active) on Mucolipin-3 [16], > 29.9 µM (not active) on Ion channel NompC [17], > 29.9 µM (inactive) on Ion channel NompC [18] and 2 µM (active) at Mucolipin-3 [19].

Regarding `COc1ccc(CN(CC2CCCO2)C(=O)CN2C(=O)COc3ccccc32)cc1OC` (stereo not drawn), the EC50 is 4.88 µM (active) in assay [20]; > 32 µM (inactive) on Mu-type opioid receptor [21]; > 32 µM (inactive) at Mu-type opioid receptor [23]; > 32 µM (inactive) in assay [25]; > 32 µM (inactive) in assay [26]; > 10 µM (inactive) in assay [28]. The values for the EC50 in assay [29] and in assay [30] were 11.5 µM and 11 µM, respectively. The IC50 (in assay [22]; on Mu-type opioid receptor [24]; in assay [27]; in assay [31]) was > 32 µM (inactive) throughout.

For the compound `O=[N+]([O-])c1ccc(Sc2ccccc2Cl)nc1`, the AC50 in [32] is 33.2 µM (active).

The term Ki denotes a measure of affinity in units of concentration, obtained from inhibition or displacement. As for `COc1ccc(-c2csc(Nc3ccc(N)cc3)n2)cc1OC`, the Ki in [33] was 71.1 µM (inactive).
